From patent US8273562B2, “Method for producing 4-hydroxy-L-isoleucine” (Ajinomoto Co., Inc., priority 2006, dated 2012)

Tests used:
[1] = test system: human pancreatic islets; settings: stimulating effect dependent on plasma glucose concentrations; cited from earlier work
[2] = test system: isolated perfused rat pancreas; settings: stimulating effect dependent on plasma glucose concentrations; cited from earlier work
[3] = Optimum pH, optimum temperature and temperature stability of purified L-Ile hydroxylase; format: biochemical, Bacillus thuringiensis; settings: enzyme solution pH 7.0 incubated 1 hour at 0 to 70° C.
Method: By using L-Ile hydroxylase prepared as described in Example 2, pH dependency on the producing of the 4-hydroxyisoleucine was evaluated. The enzymatic reaction solution contained 5 mM L-Ile, 5 mM Fe^2+, 5 mM 2-oxoglutaric acid, 5 mM ascorbic acid and 200 mM GTA (pH 3 to 12). The reaction temperature was 30° C. […] Production of a large amount was confirmed at pH 4 to 8, and production of the most 4-hydroxyisoleucine was confirmed at pH 5 to 8.
By using L-Ile hydroxylase prepared as described in Example 2, the optimum temperature of the 4-hydroxyisoleucine production activity was evaluated. The enzymatic reaction solution contained 5 mM Ile, 5 mM Fe^2+, 5 mM 2-oxoglutaric acid, 5 mM ascorbic acid, and 100 mM HEPES (pH 6). […] High production was confirmed for the temperature range of 0 to 40° C.
By using L-Ile hydroxylase prepared as described in Example 2, the temperature stability during production of 4-hydroxyisoleucine was evaluated. The enzyme solution at pH 7.0 was incubated at 0 to 70° C. for 1 hour, and then the Ile hydroxylation activity was measured. The enzymatic reaction solution contained 5 mM Ile, 5 mM Fe^2+, 5 mM 2-oxoglutaric acid, 5 mM ascorbic acid, and 100 mM HEPES (pH 6), and the reaction temperature was 30° C. These values are relative to the storage temperature which produced the maximum amount of hydroxyisoleucine, which was set as 100%. […]

[4] = IDO activity assay in crude cell lysate of recombinant E. coli strains; format: biochemical, Escherichia coli
Method: 2.4. The IDO activity assay in crude cell lysate of TG1[pMW119-IDO(Lys, 23) and TG1[pMW119-IDO(Lys, 32): To investigate the IDO activity in crude cell lysates of recombinant E. coli strains, the following procedures were carried out. Cells from 5 ml of culture were harvested by centrifugation at 4° C., re-suspended in 0.5 ml of buffer A*(50 mM TRIZMA, 5% glycerol, 1 mM EDTA, 1 mM DTT, pH 7 adjusted by HCl) and disrupted by sonication at 4° C. The reaction mixture (50 μl) contained 50 mM HEPES pH 7.0, 5 mM Ile, 0.5 mM α-ketoglutarate, 5 mM ascorbate, 5 mM FeSO4, and an aliquot of the protein preparation. The reaction was incubated at 34° C. for 1 hour with shaking. The synthesized 4HIL was detected using TLC or HPLC analysis as described in Example 4.

C[C@@H]([C@H](C)O)[C@H](N)C(=O)O [4-Hydroxy-L-isoleucine, (2S,3R,4S)-4-hydroxy-L-isoleucine]
insulinotropic activity [1]: insulinotropic activity | insulinotropic activity [2]: insulinotropic activity

B1: L-Ile hydroxylase: L-isoleucine dioxygenase purified from Bacillus thuringiensis strain 2-e-2, SEQ ID NO: 2 (protein, listed as Bacillus thuringiensis)
chain: KMSGFSIEEKVHEFESKGFLEISNEIFLQEEENHSLLTQAQLDYYNLEDDAYGECRARSYSRYIKYVDSPDYILDNSNDYFQSKEYNYDDGGKVRQFNSINDSFLCNPLIQNIVRFDTEFAFKTNIIDKSKDLIIGLHQVRYKATKERPSFSSPIWLHKDDEPVVFLHLMNLSNTAIGGDNLIANSPREINQFISLKEPLETLVFGQKVFHAVTPLGTECSTEAFRDILLVTFSYKETK
temperature at which enzyme was inactivated [3]: ≥ 60 °C | IDO activity in comparison with IDO(Lys,32) [4]: 5 times
